Assay results from article PMC11992225, “Antibacterial compounds against non-growing and intracellular bacteria” (npj Antimicrobials and Resistance, 2025).
“And” between values parts separate entries of the source, which are not always exact repeats. Equal values may be shown once.

Tests used:
non-growing UPEC CFT073 = experiment: Dose-dependent killing analysis (CFU spot-plating) of stationary-phase UPEC; assay type: cell-based, Escherichia coli
In short: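 Killing assessed by CFU counts: overnight 37 °C LB agar spot plates (10 μl drops of 10-fold PBS dilutions) scored at the lowest dilution with distinct colonies. Samples were compound-treated non-growing UPEC CFT073, 200 μl per well. Performed as three biological replicates.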

[1] = system: non-growing S. aureus DSM2569; experiment: Dose-dependent killing analysis (CFU spot-plating) of stationary-phase S. aureus; assay type: cell-based, Staphylococcus aureus; conditions: S. aureus; for log10(CFU/ml) of treated nongrowing bacteria (single replicates): before treatment 9,097
In short: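 Survival was scored as CFU after overnight growth at 37 °C on LB agar, using spots from 10-fold PBS dilutions of treated cultures. Non-growing S. aureus DSM2569 had been exposed to compound for 24 h in 1:4 CA-MHB, pH 7.4. Three biological replicates were run.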

[2] = system: non-growing P. aeruginosa DSM1117; experiment: Dilution-regrowth assay (OD600, start-growth-time) on stationary-phase P. aeruginosa; assay type: cell-based, Pseudomonas aeruginosa; conditions: Pseudomonas aeruginosa, DSM1117; P. aeruginosa; regrowth delay of non-growing bacteria, 1:4 CA-MHB pH 7.4, 24 h treatment, OD600 8 h after dilution; read-out: EC50
In short: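 Start-growth-time was taken as the point where OD600, recorded every 20 min at 37 °C over about 20 h of regrowth, passed 0.12. Before that, non-growing cultures in HEPES-buffered 1:4 CA-MHB (pH 7.4) were exposed for 24 h, with compounds at 20 μM in preliminary runs.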

[3] = system: non-growing S. aureus DSM2569; experiment: Dilution-regrowth assay (OD600, start-growth-time) on stationary-phase S. aureus; assay type: cell-based, Staphylococcus aureus; conditions: Staphylococcus aureus, DSM2569; S. aureus; regrowth delay of non-growing bacteria, 1:4 CA-MHB pH 7.4, 24 h treatment, OD600 8 h after dilution; read-out: EC50
In short: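 Non-growing S. aureus was tested in a dilution-regrowth format. Cells were cultured and treated for 24 h in 1:4 diluted CA-MHB, pH 7.4, then diluted into drug-free medium, and OD600 was measured every 20 min. Start-growth-time was the time OD600 passed 0.12. Dose-response curves were fitted with a five-parameter logistic equation to derive EC50.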

## O=C(O)c1cn(-c2ccc(F)cc2)c2cc(N3CCNCC3)c(F)cc2c1=O [Sarafloxacin]
non-growing UPEC CFT073; E. coli in 1:4 CA-MHB (pH 7.4), drug concentration 0.25
  killing, average Δlog10(CFU/ml): 0.025 log10(CFU/ml)
non-growing UPEC CFT073; E. coli in 1:4 CA-MHB (pH 7.4), drug concentration 0.25, before treatment 8.977
  log10(CFU/ml) of treated nongrowing bacteria (single replicates): 9.301 log10(CFU/ml) and 8.477 log10(CFU/ml) and 9.079 log10(CFU/ml)
non-growing UPEC CFT073; E. coli in 1:4 CA-MHB (pH 7.4), drug concentration 0.5
  killing, average Δlog10(CFU/ml): 0.172 log10(CFU/ml)
non-growing UPEC CFT073; E. coli in 1:4 CA-MHB (pH 7.4), drug concentration 0.5, before treatment 8.977
  log10(CFU/ml) of treated nongrowing bacteria (single replicates): 9.000 log10(CFU/ml) and 8.954 log10(CFU/ml) and 8.462 log10(CFU/ml)
non-growing UPEC CFT073; E. coli in 1:4 CA-MHB (pH 7.4), drug concentration 1
  killing, average Δlog10(CFU/ml): 0.391 log10(CFU/ml)
non-growing UPEC CFT073; E. coli in 1:4 CA-MHB (pH 7.4), drug concentration 1, before treatment 8.977
  log10(CFU/ml) of treated nongrowing bacteria (single replicates): 9.114 log10(CFU/ml) and 8.532 log10(CFU/ml) and 8.114 log10(CFU/ml)
non-growing UPEC CFT073; E. coli in 1:4 CA-MHB (pH 7.4), drug concentration 2.5
  killing, average Δlog10(CFU/ml): 1.103 log10(CFU/ml)
non-growing UPEC CFT073; E. coli in 1:4 CA-MHB (pH 7.4), drug concentration 2.5, before treatment 8.977
  log10(CFU/ml) of treated nongrowing bacteria (single replicates): 8.398 log10(CFU/ml) and 7.903 log10(CFU/ml) and 7.322 log10(CFU/ml)
non-growing UPEC CFT073; E. coli in 1:4 CA-MHB (pH 7.4), drug concentration 5
  killing, average Δlog10(CFU/ml): 1.741 log10(CFU/ml)
non-growing UPEC CFT073; E. coli in 1:4 CA-MHB (pH 7.4), drug concentration 5, before treatment 8.977
  log10(CFU/ml) of treated nongrowing bacteria (single replicates): 7.491 log10(CFU/ml) and 7.176 log10(CFU/ml) and 7.041 log10(CFU/ml)
non-growing UPEC CFT073; E. coli in 1:4 CA-MHB (pH 7.4), drug concentration 10
  killing, average Δlog10(CFU/ml): 2.143 log10(CFU/ml)
non-growing UPEC CFT073; E. coli in 1:4 CA-MHB (pH 7.4), drug concentration 10, before treatment 8.977
  log10(CFU/ml) of treated nongrowing bacteria (single replicates): 7.279 log10(CFU/ml) and 6.845 log10(CFU/ml) and 6.380 log10(CFU/ml)
non-growing UPEC CFT073; E. coli in LPM (pH 5.5), drug concentration 0.25
  killing, average Δlog10(CFU/ml): 0.072 log10(CFU/ml)
non-growing UPEC CFT073; E. coli in LPM (pH 5.5), drug concentration 0.25, before treatment 7.350
  log10(CFU/ml) of treated nongrowing bacteria (single replicates): 7.079 log10(CFU/ml) and 6.477 log10(CFU/ml) and 8.279 log10(CFU/ml)
non-growing UPEC CFT073; E. coli in LPM (pH 5.5), drug concentration 0.5
  killing, average Δlog10(CFU/ml): 0.127 log10(CFU/ml)
non-growing UPEC CFT073; E. coli in LPM (pH 5.5), drug concentration 0.5, before treatment 7.350
  log10(CFU/ml) of treated nongrowing bacteria (single replicates): 6.778 log10(CFU/ml) (2×) and 8.114 log10(CFU/ml)
non-growing UPEC CFT073; E. coli in LPM (pH 5.5), drug concentration 1
  killing, average Δlog10(CFU/ml): 0.084 log10(CFU/ml)
non-growing UPEC CFT073; E. coli in LPM (pH 5.5), drug concentration 1, before treatment 7.350
  log10(CFU/ml) of treated nongrowing bacteria (single replicates): 6.477 log10(CFU/ml) and 7.146 log10(CFU/ml) and 8.176 log10(CFU/ml)
non-growing UPEC CFT073; E. coli in LPM (pH 5.5), drug concentration 2.5
  killing, average Δlog10(CFU/ml): 0.011 log10(CFU/ml)
non-growing UPEC CFT073; E. coli in LPM (pH 5.5), drug concentration 2.5, before treatment 7.350
  log10(CFU/ml) of treated nongrowing bacteria (single replicates): 7.114 log10(CFU/ml) and 7.000 log10(CFU/ml) and 7.903 log10(CFU/ml)
non-growing UPEC CFT073; E. coli in LPM (pH 5.5), drug concentration 5
  killing, average Δlog10(CFU/ml): -0.00245 log10(CFU/ml)
non-growing UPEC CFT073; E. coli in LPM (pH 5.5), drug concentration 5, before treatment 7.350
  log10(CFU/ml) of treated nongrowing bacteria (single replicates): 6.903 log10(CFU/ml) and 7.114 log10(CFU/ml) and 8.041 log10(CFU/ml)
non-growing UPEC CFT073; E. coli in LPM (pH 5.5), drug concentration 10
  killing, average Δlog10(CFU/ml): 0.353 log10(CFU/ml)
non-growing UPEC CFT073; E. coli in LPM (pH 5.5), drug concentration 10, before treatment 7.350
  log10(CFU/ml) of treated nongrowing bacteria (single replicates): 6.699 log10(CFU/ml) and 6.845 log10(CFU/ml) and 7.447 log10(CFU/ml)
[1]; drug concentration 0.1
  killing, average Δlog10(CFU/ml): 0.203 log10(CFU/ml)
  log10(CFU/ml) of treated nongrowing bacteria (single replicates): 8.845 log10(CFU/ml) and 8.903 log10(CFU/ml) and 8.934 log10(CFU/ml)
[1]; drug concentration 0.5
  killing, average Δlog10(CFU/ml): 0.133 log10(CFU/ml)
  log10(CFU/ml) of treated nongrowing bacteria (single replicates): 8.869 log10(CFU/ml) and 9.111 log10(CFU/ml) and 8.914 log10(CFU/ml)
[1]; drug concentration 2.5
  killing, average Δlog10(CFU/ml): 0.565 log10(CFU/ml)
  log10(CFU/ml) of treated nongrowing bacteria (single replicates): 8.681 log10(CFU/ml) and 8.914 log10(CFU/ml) and 8.000 log10(CFU/ml)
[1]; drug concentration 10
  killing, average Δlog10(CFU/ml): 0.598 log10(CFU/ml)
  log10(CFU/ml) of treated nongrowing bacteria (single replicates): 8.462 log10(CFU/ml) and 8.653 log10(CFU/ml) and 8.380 log10(CFU/ml)
[2]
  EC50: 216 nM
[3]
  EC50: 662 nM
